Series [1] concerns male C57BL/6J ob/ob mice. The experiment in a line: Blood glucose in ob/ob mice on dietary curcumin. The settings on record: dietary curcumin (3%), p<0.05. The series is classed as in vivo, mouse.
Series [2] relates to male C57BL/Ks db/db mice. Nature of the series: Blood glucose in db/db mice (dietary curcumin or single i.p. injection). The series is classed as in vivo, mouse. The settings on record: for blood glucose after a single intraperitoneal injection: epoxomicin 0.1 mg/kg or celastrol 3 mg/kg i.p., male db/db mice, noted approximately 10 hours after injection; for duration of blood glucose lowering after injection: single i.p. injection. The source says: (§1) This translated into a daily consumption by the mice of roughly 1.0 to 1.5 g/kg/day.
Male C57BU6J mice gradually develop obesity and moderate diabetes when placed on high-fat diets, a process quite analogous to that in humans. […] However, the loss of leptin effect on the C57BL/Ks background is not compensated for by β-cell hyperplasia and hyperinsulinemia. At a very young age these mice become severely hyperglycemic, hyperphagic, and polydipsic. As they mature, they start to lose weight, develop nephropathy, and ultimately die around age 40 weeks from diabetic complications.
(§2) This effect was noted to last for at least 48 hours post-injection. Mice receiving vehicle in the celastrol and epoxomicin experiments were food entrained to the treatment group to avoid any acute effects on glucose levels from differences in food intake.

Series [3] has as its system DIO C57BL/6J, C57BL/6J ob/ob and C57BL/Ks db/db mice. The experiment in a line: Random fed glucose and HbA1c in the three mouse models of diabetes. The series is classed as in vivo.
Series [4] has as its system male C57BL/6J DIO mice. Nature of the series: Glucose tolerance test in DIO mice. The format is in vivo, mouse. To be noted: dietary curcumin. How it is done: as §1, §2
Series [5] has as its system male C57BL/6J ob/ob mice. Nature of the series: Insulin tolerance test in ob/ob mice. The series is classed as in vivo, mouse. The settings on record: dietary curcumin (3%). The protocol: as §1, §2
Series [6] concerns male C57BL/6J ob/ob mice. The experiment in a line: Body composition (Bruker NMR), food intake and liver in ob/ob mice. The format is in vivo, mouse.
The test system of series [7] is male C57BL/6J DIO mice. Nature of the series: Body composition, food intake and liver in DIO mice. The format is in vivo, mouse.
For series [8], the system named is male C57BL/Ks db/db mice. Nature of the series: Body composition (Bruker NMR), food intake and liver in db/db mice. The settings on record: dietary curcumin (3%). The series is classed as in vivo, mouse.
The subject of series [9] is TNF-α, Socs-3, Ccl2 (MCP-1 gene) and Ccr2 (MCP-1 receptor gene). The experiment in a line: Quantitative real-time PCR of hepatic inflammatory genes in ob/ob mice. The series is classed as in vivo, mouse. To be noted: dietary curcumin, 10 weeks; male ob/ob mice. The text has this: (§3) These included TNF-α, Socs-3, Ccl2 (MCP-1 gene) and Ccr2 (MCP-1 receptor gene).
Background: Real-time PCR tracks product formation cycle by cycle.

Another series has as its system NFkB p65. Nature of the series: p65 activity assay (TransAM NFkB p65 Kit) in liver nuclear extracts of ob/ob mice. The format is in vivo, mouse. To be noted: dietary curcumin, 10 weeks; liver nuclear extract of ob/ob mice.
From the text: as §3

The test system of series [10] is adiponectin (Acdc), F480 (Emr1). The experiment in a line: Quantitative real-time PCR of white adipose tissue of ob/ob mice. The format is in vivo, mouse. The settings on record: dietary curcumin, 10 weeks; male ob/ob mice. The text has this: (§4) Given that the adipose tissue of obese subjects is chronically inflamed and secretes diabetogenic adipokines, we investigated the possibility that proteasome inhibition improves diabetes by decreasing adipose inflammation in obese diabetic mice.

Series [11] in a line: Serum adiponectin in ob/ob mice. The format is in vivo, mouse. To be noted: curcumin-treated ob/ob mice (not shown).
From the text: as §4

In series [12] the test system is macrophages in adipose tissue of ob/ob mice. The experiment in a line: Adipose macrophage immunohistochemistry (F480 antibody) in ob/ob mice. The series is classed as in vivo, mouse. The settings on record: dietary curcumin; male C57BL/6J ob/ob mice.
Series [13] in a line: Serum insulin in db/db mice. The format is in vivo, mouse. The settings on record: for serum insulin: single i.p. dose, celastrol 3 mg/kg or epoxomicin 0.1 mg/kg, 24 hours post injection, male C57BL/Ks db/db mice. The source says:
(§5) As FIGS. 19 and 20 A-C reveal, untreated ob/ob mice develop pancreatic β-cell hyperplasia and hyperinsulinemia, a phenomenon that ultimately allows them to recoup normoglycemia. The pancreatic islets in untreated C57BL/Ks db/db mice however, degenerate (FIG. 20 D-F).

Series [14] has as its system pancreatic islets of C57BL/Ks db/db mice. Nature of the series: Immunohistology of pancreatic islets in db/db mice. The series is classed as in vivo, mouse. To be noted: curcumin-treated C57BL/Ks db/db mice.
From the text: as §5

Series [15] deals with diabetic streptozotocin-treated rat. The settings on record: oral curcumin therapy; preclinical studies, mostly streptozotocin-treated rat; cited from earlier work.
The conditions of series [16]: daily doses about 0.5 to about 3.0 mg/kg/d (i.p.); cited from earlier work.
Series [17] concerns Glucotoxic HIT-T15 β-cells. To be noted: cited from earlier work.
Series [18] has as its system male C57BL/Ks db/db mice. The experiment in a line: Insulin tolerance test in db/db mice. The series is classed as in vivo, mouse. The settings on record: celastrol i.p., 24 hours after a single injection. The protocol:
as §2

Series [19] concerns adiponectin (Acdc), Ccl2 (MCP-1). The experiment in a line: Gene expression in white adipose tissue of db/db mice after celastrol. To be noted: celastrol i.p. once daily for 3 days; male db/db mice. The format is in vivo, mouse.
The test system of the next series is rat β-cell line INS-1. The experiment in a line: INS-1 viable cell number (CellTiter-Blue Cell Viability Assay). The format is cell-based. The settings on record: INS-1 cells, 24 hours. The text has this: To follow-up on the potential ability of proteasome inhibition to improve β-cell function, we performed experiments using the rat β-cell line Ins-1.
On the technique in general: Alamar Blue is a resazurin reagent that responds to reducing activity.

In series [20] the target is chymotrypsin-like activity of a purified 20S proteasome (Homo sapiens, UniProt P28074). To be noted: reported (ref. 83); cited from earlier work.
The target in series [21] is T1, human prostate cancer cellular 26S proteasome (Homo sapiens, UniProt P28074).
T1 construct: human prostate cancer cellular 26S proteasome
The settings on record: reported (ref. 83); cited from earlier work.

In series [22] the test system is human prostrate cancer growth in nude mice. The settings on record: tumor-bearing nude mice; 1-3 mg/kg/d (i.p.); cited from earlier work.
Setting [23] is: curcumin-fed ob/ob mice vs controls (data not shown).
The mark [24] stands for this setting: dietary curcumin (3%), ob/ob mice.

Entries after “also recorded” stand apart in the source; their conditions may differ.

For orientation: IC50 means the concentration at which inhibition is half-maximal.

For the compound `COc1cc(/C=C/C(=O)CC(=O)/C=C/c2ccc(O)c(OC)c2)ccc1O` [curcumin], in the series on male C57BL/6J ob/ob mice [1], the “effect on hyperglycemia (blood glucose)” value was “significant protective effect against hyperglycemia”. The “effect on hyperglycemia (blood glucose)” value in the series on male C57BL/Ks db/db mice [2] (dietary curcumin (3%), male C57BL/Ks db/db mice, p<0.05) was “significant protection against hyperglycemia”. The HbA1c levels result in series [3] (3% dietary curcumin, all mouse models of diabetes tested) is on record as “significant decreases; also recorded: decreases HbA1c percentage”. In series [3] (3% dietary curcumin, all three diabetic mice categories, as early as 2-3 weeks), the random fed glucose result was “significant decreases”. The “HbA1c percentage in non-diabetic mice” value in [3] (dietary curcumin (3%), non-diabetic mice) was “not affected”. Further, the “AUC of glucose tolerance test” value in the series on male C57BL/6J DIO mice [4] is on record as “improved glucose tolerance; also recorded: significantly lowers AUC of glucose”. Also, in the series with male C57BL/6J ob/ob mice [5], the “AUC of insulin tolerance test” value is given as “decreased area under the curve (AUC); also recorded: significantly lowers AUC of insulin tolerance test”. For the same compound, in the series on male C57BL/6J ob/ob mice [6] (setting [23]), the “degree of liver steatosis” value is “significantly lower” and the liver weight result is recorded as “significantly lower”. Also, in the series on male C57BL/6J ob/ob mice [6] (setting [24]), the “adipose mass / body fat” value was “significantly less body fat; also recorded: significantly decreases”, the body weight result is “weighed slightly but significantly less; also recorded: significantly decreases body weight” and the “lean body mass (NMR)” value is “significantly more lean mass; also recorded: significantly increases lean body mass”. Moreover, the body weight entry in the series with male C57BL/6J DIO mice [7] (3% curcumin in food, DIO mice) is “weighed slightly but significantly less”. Further, the liver weight entry with male C57BL/6J DIO mice [7] (curcumin treatment, DIO mice) is listed as “significantly lower; also recorded: significantly decreased”. The “degree of liver steatosis” value with male C57BL/6J DIO mice [7] (curcumin-fed DIO mice vs controls (data not shown)) was “significantly lower”. For the same compound, in the series with male C57BL/6J DIO mice [7] (one month of curcumin treatment, DIO mice), the “body fat percentage / body fat” value is given as “significantly less body fat; also recorded: significantly decreased body fat percentage”. Also, in the series on male C57BL/Ks db/db mice [8], the body weight result was “weighed more; also recorded: significantly increased” and the “lean muscle mass (NMR)” value was “significantly more lean mass; also recorded: significantly increased lean muscle mass”. Moreover, the “hepatic expression of pro-inflammatory genes (TNF-α, Socs-3, Ccl2, Ccr2)” value in [9] was “significantly downregulated; also recorded: significantly lowers hepatic expression of pro-inflammatory genes”. Moreover, the “hepatic NF-κB activity” value in the series with NFkB p65 is given as “significantly less NFkB activity; also recorded: significantly decreases hepatic NF-κB activity”. For the same compound, in series [10], the “F480 (Emr1) expression in white adipose tissue” value is given as “significantly decreased macrophage-specific Emr1 (F480) expression; also recorded: decreases F480 (Emr1) expression” and the “adiponectin (Acdc) expression in white adipose tissue” value is given as “dramatically increased; also recorded: significantly increases expression of adiponectin (Acdc)”. Further, the serum adiponectin levels result in [11] is reported as “significantly higher”. Besides, the “adipose macrophage infiltration (F480 staining)” value in [12] is recorded as “dramatic reduction in the number of macrophages; also recorded: significant reduction of adipose macrophage infiltration”. Moreover, the serum insulin levels entry in series [13] (dietary curcumin, db/db mice) is reported as “exhibit hyperinsulinemia; also recorded: significantly increased serum insulin levels”. The “proliferating β-cells (nuclear Ks67 immunoreactivity)” value in [14] was “contain some proliferating β-cells”. Also, the “pancreatic islet morphology (hyperplasia)” value in series [14] (age 20 weeks) is reported as “islets actually become hyperplastic; also recorded: hyperplasia of the pancreatic islets”. Besides, the “diabetes-related hyperglycemia or end-organ damage” value in [15] is listed as “prevents, delays, or ameliorates diabetes-related hyperglycemia or end-organ damage”.
Take `CC[C@H](C)[C@H](NC(=O)[C@H]([C@@H](C)CC)N(C)C(C)=O)C(=O)N[C@H](C(=O)N[C@@H](CC(C)C)C(=O)[C@@]1(C)CO1)[C@@H](C)O` [epoxomicin]: in the series with male C57BL/Ks db/db mice [2], the “blood glucose after a single intraperitoneal injection” value is listed as “correction of hyperglycemia; also recorded: significantly lowers blood glucose”. Besides, the “duration of blood glucose lowering after injection” value with male C57BL/Ks db/db mice [2] (male C57BL/Ks db/db mice) is reported as about 2 days. For the same compound, the serum insulin entry in [13] is “significant increases in serum insulin; also recorded: significantly increase serum insulin”. Further, the antiinflammatory activity result in series [16] is “exhibits antiinflammatory activity”.
For `CC(=O)N[C@@H](CSC(=O)[C@]1([C@@H](O)C(C)C)NC(=O)[C@H](C)[C@@H]1O)C(=O)O` [lactacystin], the MafA protein result in series [17] is “caused an accumulation of MafA protein”.
For the compound celastrol, the “blood glucose after a single intraperitoneal injection” value in the series with male C57BL/Ks db/db mice [2] is listed as “correction of hyperglycemia; also recorded: significantly lowers blood glucose”. Further, in the series on male C57BL/Ks db/db mice [2] (male C57BL/Ks db/db mice), the “duration of blood glucose lowering after injection” value is given as about 2 days. Further, the “AUC of ITT” value with male C57BL/Ks db/db mice [18] was “improved insulin tolerance; also recorded: significantly lower AUC of ITT”. In addition, in [19], the “Ccl2 (MCP-1) expression in white adipose tissue” value is “significantly decreased adipose expression of Ccl-2; also recorded: decreasing expression of Ccl2 (MCP-1)” and the “adiponectin (Acdc) expression in white adipose tissue” value is reported as “significantly increased expression of adiponectin; also recorded: significantly increases expression of adiponectin (Acdc)”. Further, the serum insulin entry in [13] is reported as “significant increases in serum insulin; also recorded: significantly increase serum insulin”. Besides, the “cell viability at highest concentrations” value in the series on rat β-cell line INS-1 is “proved cytotoxic; also recorded: negative effects on cell viability”. In [20], the IC50 is 2500 nM. Also, in series [21], the “concentration inhibiting human prostate cancer cellular 26S proteasome” value is recorded as 1-5 μM/L. The tumor growth result in [22] is on record as “inhibition of tumor growth”.

The record behind these values is patent publication US20100240581A1, “SELECTIVE PROTEASOME INHIBITORS FOR TREATING DIABETES” (The Trustees of Columbia University in the City of New York, priority 2006, published 2010).
